In PMC4875962 (Clinical Pharmacokinetics, 2015):

Key:
Metabolic CYP enzymes = settings: cited from earlier work
Transporters = settings: cited from earlier work
[1] = after multiple doses; cited from earlier work
platelet aggregation = settings: day 2 ratio (90 % CI 68.20–71.62); data on file

Row | SMILES | Metabolic CYP enzymes inhibited (Metabolic CYP enzymes) | Transporters inhibited (Transporters) | also measured
1 | CCCCc1oc2ccc(NS(C)(=O)=O)cc2c1C(=O)c1ccc(OCCCN(CCCC)CCCC)cc1 [Dronedarone] | Moderate 3A4 | P-gp | –
2 | COc1ccc2nc([S@@+]([O-])Cc3ncc(C)c(OC)c3C)[nH]c2c1 [Esomeprazole] | 2C9, 2C19 (competitive) | – | gastric pH [1]: approximately 5
3 | CC(=O)N1CCN(c2ccc(OCC3COC(Cn4ccnc4)(c4ccc(Cl)cc4Cl)O3)cc2)CC1 (stereo not shown) [Ketoconazole] | Strong 3A4; weak 2C8, 2C19 | P-gp | –
4 | COc1ccc2cc([C@H](C)C(=O)O)ccc2c1 [Naproxen] | – | – | baseline-corrected ratio for platelet aggregation (platelet aggregation): 69.89%
5 | C=C[C@H]1C[N@@]2CC[C@H]1C[C@@H]2[C@@H](O)c1ccnc2ccc(OC)cc12 [Quinidine] | Strong 2D6 | P-gp; OCT2 | –
6 | CO[C@H]1/C=C/O[C@@]2(C)Oc3c(C)c(O)c4c(O)c(c(/C=N/N5CCN(C)CC5)c(O)c4c3C2=O)NC(=O)/C(C)=C\C=C\[C@H](C)[C@H](O)[C@@H](C)[C@@H](O)[C@@H](C)[C@H](OC(C)=O)[C@@H]1C [Rifampin] | – | – | Transporters induced (Transporters): P-gp
